Test results taken from patent EP0162545A2, “Enhanced bioconversion processes” (BETZ EUROPE, INC., priority 1984, dated 1985).
Like-named read-outs stand apart in the source and are kept apart here.

Legend:
[1] = tested on: Klebsiella pneumoniae; experiment: microbe, parasite or virus in culture; format: cell-based
Experimental: (§1) The first series of experiments involved the measurement of the amount of C02 evolved from aerobically growing cultures of the representative organism Klebsiella in the presence and absence of uncoupling agents. The known uncouplers 2, 4 dinitrophenol (DNP) and carbonyl cyanide m-chlorophenyl hydrazone (CCCP) were tested along with bis (tricholoromethyl) sulfone (TCMS) and beta-bromo-beta-nitrostyrene (BNS). It can be seen from the data that CCCP caused large increases in C02 evolution over the untreated controls at all concentrations used, with the largest increase (29%) at 5 µg/mL (24.4 uM). […] Bacterial counts also reflected the lack of uncoupling activity. […] Largest increase in C02 blowoff came at 50 ppm (32%). BNS gave a mixed pattern as opposed to those of DNP and CCCP. […] Even at 10 µg/mL, the bacterial count was reduced ~ 50% while still giving greater C02 blowoff than control cultures.
The procedure utilized to perform the first series of experiments was as follows: • Sealed vials containing 8 mL of minimal salts medium (Composition: K2HPO4-39, KH2PO4-lg, MgSO4-0.2g, (NN4)2SO4^-1g, D-glucose-5g (optional) in 1 liter. Autoclave and adjust pH to 6.8) lacking any carbon source were each injected with 1 mL of a suspension of Klebsiella pneumoniae. (Klebsiella was grown overnight, shaken at 37°C, in minimal salts medium containing glucose to a heavy cell suspension. The cells were centrifuged at 10,000 g and resuspended to a turbidity of 150 Klett units [Klett-Summerson photometer, #42 blue filter) in minimal salts medium [MSM], no glucose. These cells were again centrifuged, and resuspended in MSM at 1/10 the volume used previously. This 10X cell suspension was used as the standard inoculum for the vials.) The vials were- simultaneously injected with 1 mL of a 1 µ Ci/mL solution of ^14C-U-D glucose and the appropriate concentration of material to be tested. The compounds tested were fed at concentrations of […]. Controls received no test material and all vials were shaken during the course of the experiments at 37°C. Vials were read for C02 blowoff at the times indicated on the appropriate Tables. Standard bacterial counts were done on each vial after the end of each experimental series. [formula] [formula] [formula] [formula]

[2] = tested on: Klebsiella; experiment: microbe, parasite or virus in culture; format: cell-based; details: Klebsiella, read-out: increase in C02 blowoff
Experimental: These patterns were the results of Klebsiella cultures having been grown on glucose (^14C-label). In nature, and in waste treatment facilities, many organic carbon compounds, both simple and complex, would be available for degradation. The known uncouplers and BNS were tested for their ability to increase C02 evolution from cultures exposed to the common substrates lactate, glycine, glycerol, and a denatured protein mixture. […] This was expected in the case of glycine but it was thought that a more complex protein might be degraded and portions used for some energyproduction. It was hoped that these compounds might be a more representative group (more abundant in waste treatment) than simple sugars for determining the extent of activity of BNS. […] Lactate, a common intermediate in microbial metabolism, and a compound which would normally be used as an oxidizable substrate for running the cytochrome chain, gave a more representative response. BNS treated cultures gave increased C02 blowoff (an increase as high as 130% at 5 µg/mL) as did both known uncouplers. […] When glycerol was used as the labeled substrate, BNS treated cultures gave increased C02 at concentrations up to 5 µg/mL.
The procedure used for determining the CO2 evolution was similar to the procedure described previously. Cells having been grown overnight in MSM and glucose were centrifuged and resuspended in MSM + glucose (cold) and used as inoculum. No other cold carbon source (unlabeled) was added. ^14C-labeled substrates (lactate, glycerol, etc.) obtained from New England Nuclear were used and supplied the radiolabeled carbon for the detection of ^14CO2. BNS was utilized in concentrations of 0.5 - 10 µg/mL. Fixed concentrations of 5 µg/mL CCCP and DNP were included for comparative purposes. The following data were obtained in these experiments.

[3] = tested on: Saccharomyces cerevisiae; experiment: Yeast-alcohol batch fermentation with uncoupler dosing; format: cell-based; details: 2.0 ppm CCCP
Experimental: Saccharomyces cerevisiae (Institute of Marine Sciences, U. Of Miami Culture Collection) was used in the following fermentation medium: 1% glucose, 13.4 g/1 yeast nitrogen Base (BBL, Cockeysville, MD), 0.5 g/1 sodium thioglycollate. pH was 5.68, temperature 33°C, agitation 8.5/10 on Fisher Versamix stirplate. CCCP was dosed at 2.0 mg/l.
Reaction vessel was a 3.0 liter working volume fermenter jar - New Brunswick Scientific. Temperature control was held by recirculation of a 33°C hot water bath through the reactor heating coils by a Little Giant Model 1 submergible pump (Little Giant Pump Co., Oklahoma City, OK).
Glucose and biomass determinations were made by the previously mentioned techniques. Ethanol determinations was by the alcohol dehydrogenase method 331-UV (Sigma Chemical Co., St. Louis, MO). Reactors were run for approximately 150 hours with sampling times varying throughout the experiment.

[4] = tested on: Klebsiella pneumoniae; experiment: Standard bacterial counts on the CO2 blowoff vials, first series; format: cell-based
Experimental: as §1
The procedure utilized to perform the first series of experiments was as follows: • Sealed vials containing 8 mL of minimal salts medium (Composition: K2HPO4-39, KH2PO4-lg, MgSO4-0.2g, (NN4)2SO4^-1g, D-glucose-5g (optional) in 1 liter. Autoclave and adjust pH to 6.8) lacking any carbon source were each injected with 1 mL of a suspension of Klebsiella pneumoniae. […] Vials were read for C02 blowoff at the times indicated on the appropriate Tables. […]

[5] = tested on: E. coli K12 ATCC 25404; experiment: Batch culture biomass yield and glucose removal; format: cell-based, Escherichia coli
Experimental: Biomass determinations were by Millipore Filtration using Millipore type H.A. 0.45 µ filters. Samples were centrifuged @ 15,000 x for 10 min., supernatant was filtered through a dried and preweighed filter. The centrifuged pellet was then vortexed in 2 mL of D.I. water and filtered also. Samples were then dried overnight @ 105°C and re-weighed. Biomass was the weight of the dried filter less the tared filter weight.
Glucose determinations were carried out on the centrifuged reactor sample supernatants using glucose enzymatic assay (hexokinase and glucose 6-phosphate dehydrogenase) UV-15 Sigma Chemical Co., St. Louis, MO. (Assay set-up pamphlet accompanies kit). Spectrophotometric measurements were run on a Zeiss PM-6 Spektralphotometer, Carl Zeiss, 7082 Oberkochen, West Germany.
Escherichia coli K12 ATCC 25404 was grown to 175 K.U. (after 48 hours) on 10 g/1 dextrose, 75 mL/1 25x VBE, 5 mL/1 trace mixture. Ten mL of this culture was then used as seed for 300 mL of media of the same composition and dosed with varying concentrations of CCCP, myristic acid and salicylanilide.
Initial and 72 hour measurements for glucose and biomass were run by the previously described methods.

[6] = Escherichia coli, ATCC25404, 72 h, read-out: drop in biomass yield

N#CC(C#N)=NNc1cccc(Cl)c1 [CCCP, carbonyl cyanide m-chlorophenyl hydrazone]
activation at 5 µg/mL ([1]; Klebsiella pneumoniae, 5 µg/mL (24.4 uM), 14C-glucose, read-out: largest increase in C02 evolution over the untreated controls): 29%
activation at 5 µg/mL ([2]; 14C-lactate as labeled substrate, 5 µg/mL): 151%
g ETOH formed hr. max. [3]: 0.45
g ETOH formed hr. max., change vs Control [3]: +41.6%
g glucose consumed/hr. max. [3]: 0.39
g glucose consumed/hr. max., change vs Control [3]: +88%
g cells mole glucosef ([3]; f = final): 6.59
g cells mole glucosef, change vs Control ([3]; f = final): -44.1%
mole ETOH/Mole Glucosef g cells ([3]; f = final): 4.02
mole ETOH/Mole Glucosef g cells, change vs Control ([3]; f = final): +105.1%
moles ETOH/ mole glucosef* ([3]; f = final): 1.39
moles ETOH/ mole glucosef*, change vs Control ([3]; f = final): +9.4%
bacterial counts ([4]; 50 µg/mL): the same as the control levels
glucose removal efficiency ([5]; 0.4 ppm, batch, 72 hour): 100%
carbon (glucose) removal efficiency ([5]; 1.0 ppm, batch, 72 hour): 98.2%
drop of glucose removal efficiency from control ([5]; 1.9 ppm, batch, 72 hour): 4.8%
glucose removal efficiency ([5]; 1.9 ppm, batch, 72 hour): 95.2%
inhibition of growth at 0.4 ppm [5, 6]: 14.6%
inhibition of growth at 1 ppm [5, 6]: 28%
inhibition of growth at 1.9 ppm [5, 6]: 42.7%

O=[N+]([O-])c1ccc(O)c([N+](=O)[O-])c1 [DNP, 2, 4 dinitrophenol, reference compound]
activation at 50 ppm ([1]; Klebsiella pneumoniae, read-out: Largest increase in C02 blowoff): 32%
minimal effective concentration ([1]; Klebsiella pneumoniae, read-out: concentrations causing significant increases in C02 blowoff): > 5 µg/mL
activation at 5 µg/mL [2]: 83%
toxic effects (bacterial counts) ([4]; even at 50 ppm): no toxic effects

CCCCCCCCCCCCCC(=O)O [Myristic acid, myristic acid]
inhibition of growth at 25 ppm ([5]; Escherichia coli, ATCC25404, 25 ppm, batch, 72 hour, read-out: reduction in biomass yield): 19.5%
inhibitory effects on glucose removal ([5]; up to 25 ppm, batch, 72 hour): no inhibitory effects

O=C(Nc1ccccc1)c1ccccc1O [Salicylanilide, salicylanilide]
glucose removal efficiency ([5]; 50.5 ppm, batch, 72 hour): 99.7%
inhibition of growth at 50.5 ppm ([5]; Escherichia coli, ATCC25404, 50.5 ppm, batch, 72 hour, read-out: drop in biomass yield): ≤ 40.2%

O=S(=O)(C(Cl)(Cl)Cl)C(Cl)(Cl)Cl [TCMS, bis (tricholoromethyl) sulfone]
uncoupling property (C02 evolution) ([1]; all concentrations, 14C-glucose): no uncoupling property
